Here are results for six molecules from patent US8435969B2, “Method and compositions for treating hematological malignancies” (Gilead Sciences, Inc., priority 2006, dated 2013).

The nature of series [1]: Storage stability in aqueous solution. The class given is physicochemical. Particulars: 60 hours. From the text: Parenteral (sterile aqueous) solutions of the organic acid salts of compound 1 optionally comprise a stabilizing amount of carbohydrate, typically a saccharide (mono, di or polysaccharides), glycoside or sugar alcohol (alditols). Polysaccharides should be biodegradable upon parenteral injection or infusion and include dextrins and starches, typically 3-10 units. Representative carbohydrates include hexoses, aldoses, aldohexoses, aldotrioses (e.g. glyceraldehyde), aldotetroses (e.g. erythrose), aldopentoses (e.g. arabinose), ketoses, ketohexose (e.g. fructose), ketopentoses (e.g. ribulose), maltose, sucrose, lactose, ribose, xylose, lyxose, allose, altrose, glucose, mannose, gulose, idose, galactose and talose. Of particular interest are carbohydrates conventionally used in parenteral formulations, e.g., mannitol or dextrose. The optical character of the carbohydrate is not critical, but it is desirable for the configuration to be such that the carbohydrate is biodegradable upon parenteral administration. […] On the other hand, storage in buffered solutions at pH 2, 7 and 9 under the same conditions lead to substantial degradation of compound 1: About 100%,18% and 76% by weight, respectively.

Series [2] can be described thus: Solubility of the succinate salt. Particulars: pH 4.2-4.7. The format is physicochemical.
The conditions of series [3]: dog, in vivo, iv, 0.2 mg/kg.
Protocol: Distribution of Prodrugs between PBMCs and Plasma in Dogs • Dogs were administered various prodrugs of cpr-PMEDAP as 0.2 mg/kg 30 minute IV infusions. […] Alanine was the L isomer. • Blood was collected into potassium EDTA and separated by centrifugation. Primary blood mononuclear cells (PBMCs) were collected using CPT tubes (sodium citrate). • For analysis, plasma samples were precipitated by addition of 100 μL acetonitirile containing internal standards (D4AP and TDF) to 100 μL of plasma for prodrug analysis. After protein precipitation by centrifugation, 100 μA was transferred into another tube to be dried and then reconstituted in 100 μL water with 0.2% formic acid. An aliquot of 20 μL was injected onto the column for LC/MS/MS analysis. Analysis was done using a 150×2.0 mm, 4 μm Synergi Fusion-RP 80A column (Phenomenex) and a multistage linear gradient from 0.5 to 99% acetonitrile in the presence of 0.2% formic acid at 0.25 mL/min. Analytes were detected using a Sciex API-4000 mass spectrometer using electrospray ionization in positive MRM mode. […] Separate aliquots of cells from each time point resuspended in 100% serum were used to establish the cell quantities in each sample. Cell samples were normalized to 15×10^6 cells per sample. Varying degrees of hemolyses have been observed. […] 20 μL was injected for LC/MS/MS analysis using a 50×2.0 mm, 4 μm Synergi Hydro-RP 80A column (Phenomenex) and a multistage linear gradient from 0 to 95% acetonitrile in the presence of 0.2% formic acid at 1.0 mL/min. Analytes were detected using a Sciex API-4000 mass spectrometer using electrospray ionization in positive MRM mode. • After drying, samples for dephosphorylation were treated with 1 U of calf intestinal phosphatase (alkaline phosphatase, Sigma) for 2 h in manufacturer provided buffer. Samples were then adjusted to 60% acetonitrile dried and resuspended in 60% acetonitrile containing internal standards (TDF and D4AP) and analyzed for cpr-PMEDAP as described for direct PBMC analysis.
A further series in a line: Hygroscopicity. The class given is physicochemical. The following applies: solid form.

As a reminder, the solubility is how much of the substance goes into solution per volume.

As to `CCOC(=O)[C@H](C)NP(=O)(COCCn1cnc2c(NC3CC3)nc(N)nc21)N[C@@H](C)C(=O)OCC` [compound 1 succinate], the Degradation on storage result in series [1] (5% dextrose (by weight of solution; pH about 4.2, unbuffered), 40° C.) is “without significant degradation”; in series [1] (buffered solution pH 2, 40° C.), “About 100 % by weight”; in series [1] (buffered solution pH 9, 40° C.), about 76 % by weight. Also, the solubility in series [2] was over 39 mg/mL.
As to `C[C@H](NP(=O)(COCCn1cnc2c(NC3CC3)nc(N)nc21)Oc1ccccc1)C(=O)OC(C)(C)C` (stereo partly drawn) [MonoAlatBu], the “PBMC to Plasma ratio” value in series [3] worked out at 12.
Consider `C[C@H](NP(=O)(COCCn1cnc2c(NC3CC3)nc(N)nc21)Oc1ccccc1)C(=O)OC(C)(C)C` (single isomer, unassigned) [MonoAlatBu(A)], for which, in series [3], the “PBMC to Plasma ratio” value stood at 19.
On the same count and under the same terms, the value for `CC(C)OC(=O)[C@H](C)NP(=O)(COCCn1cnc2c(NC3CC3)nc(N)nc21)Oc1ccccc1` (stereo partly drawn) [MonoAlaiPr] was 17.
Turning to `CCOC(=O)C(C)NP(=O)(COCCn1cnc2c(NC3CC3)nc(N)nc21)NC(C)C(=O)OCC` (stereo not drawn) [Compound 1], the Hygroscopicity result in the series “Hygroscopicity” is given as “hygroscopic”.
On to `CC(C)OC(=O)[C@H](C)NP(=O)(COCCn1cnc2c(NC3CC3)nc(N)nc21)N[C@@H](C)C(=O)OC(C)C` [BisAlaiPr], for which the “PBMC to Plasma ratio” value in series [3] was found to be 1.2.
